For this test, the target named is alanyl aminopeptidases (APN) (Homo sapiens, UniProt P15144). Briefly: Inhibition of alanyl aminopeptidase enzymatic activity, fluorogenic substrate (Ala)2-rhodamine 110. Format: biochemical. The protocol: The inhibition characteristics measured are referred to as IC-50 values or ID50 values (the latter marked with “*”) for said enzyme. The enzymatic activity was determined by means of the fluorogenic substrate/product (Ala)2-rhodamine 110.

Where [1] appears, read: Table 3, unstarred values, read-out: IC50APN.

Where two headings read alike, the source gives them in different places. Residues, ends and D or L forms follow the SMILES beside them. *: point of attachment. Fmoc = O=C(OCC1c2ccccc2-c2ccccc21)*

Sequence of alanyl aminopeptidases (APN) (P15144 whole entry, species assumed): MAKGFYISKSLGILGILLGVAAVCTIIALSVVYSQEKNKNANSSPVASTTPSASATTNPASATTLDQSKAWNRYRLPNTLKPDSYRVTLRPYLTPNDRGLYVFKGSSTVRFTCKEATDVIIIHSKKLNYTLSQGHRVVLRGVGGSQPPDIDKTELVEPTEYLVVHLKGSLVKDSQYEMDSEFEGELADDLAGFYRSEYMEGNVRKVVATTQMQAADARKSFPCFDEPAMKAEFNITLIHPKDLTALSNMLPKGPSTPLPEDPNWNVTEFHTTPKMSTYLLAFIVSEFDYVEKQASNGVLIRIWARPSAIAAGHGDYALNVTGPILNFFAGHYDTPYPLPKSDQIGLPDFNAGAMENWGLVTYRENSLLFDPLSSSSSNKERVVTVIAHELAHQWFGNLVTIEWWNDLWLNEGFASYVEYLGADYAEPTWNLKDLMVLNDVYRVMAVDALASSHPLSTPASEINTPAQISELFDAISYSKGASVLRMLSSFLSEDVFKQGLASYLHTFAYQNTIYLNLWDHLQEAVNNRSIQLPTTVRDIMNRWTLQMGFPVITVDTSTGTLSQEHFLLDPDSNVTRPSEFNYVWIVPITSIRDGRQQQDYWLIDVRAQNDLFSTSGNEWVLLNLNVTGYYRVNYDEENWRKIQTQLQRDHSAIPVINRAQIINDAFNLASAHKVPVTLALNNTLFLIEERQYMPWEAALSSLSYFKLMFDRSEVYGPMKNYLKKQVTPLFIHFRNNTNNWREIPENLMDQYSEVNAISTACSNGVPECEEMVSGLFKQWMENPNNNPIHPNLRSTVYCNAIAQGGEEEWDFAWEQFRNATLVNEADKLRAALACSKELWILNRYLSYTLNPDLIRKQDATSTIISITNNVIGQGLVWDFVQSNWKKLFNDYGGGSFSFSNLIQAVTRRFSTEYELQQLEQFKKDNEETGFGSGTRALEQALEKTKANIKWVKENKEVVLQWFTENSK

For `O=C(N/C(=C\c1ccco1)C(=O)N1CCC(O)CC1)c1ccccc1` [A3.115], the IC50 under setting [1] amounted to 21.1 µM.

`O=C(O)c1ccc(-n2c(/C=C/c3ccco3)nc3ccccc3c2=O)cc1` [A3.116]: the IC50 under setting [1] turned out to be 21.2 µM.

In the case of `COC(=O)c1cc(NC(=O)Cc2cccs2)cc(C(=O)OC)c1` [A3.117], under setting [1], the IC50 stood at 21.2 µM.

In the case of `O=C1C(Cc2ccc(O)cc2)NC(=S)N1C1CCCCC1` (centres unmarked) [A3.118], the IC50 under setting [1] stood at 21.3 µM.

Take `CC1=C(C#N)C(O)=NC(=O)/C1=C/c1ccc(-c2ccc(Cl)c(C(=O)OC(C)C)c2)o1` [A3.120]: under setting [1], the IC50 came to 21.4 µM.

Turning to `Cc1cccc(C)c1Nc1c(-c2ccccc2NC(=O)Nc2cccc(Cl)c2)nc2c(C(=O)NCC(C)C)cccn12` [A3.121], under setting [1], the IC50 worked out at 21.6 µM.

For the compound `O=C(Nc1ccc(N=Nc2ccccc2)cc1)c1ccc(S(=O)(=O)N2CCCC2)cc1` [A3.122], the IC50 under setting [1] amounted to 21.6 µM.

Regarding `CCOc1ccc(S(=O)(=O)N2CCCCC2)cc1-c1nc2c(C(C)(C)C)nn(C)c2c(=O)[nH]1` [A3.124], the IC50 under setting [1] stood at 21.8 µM.

Take `COc1ccc(C(=O)N/N=C/c2cc(Br)c(C)o2)cc1` [A3.125]: the IC50 under setting [1] amounted to 21.8 µM.

Turning to `Cc1ccc(/C=N/NC(=O)COc2ccccc2C)o1` [A3.128], under setting [1], the IC50 is 22.2 µM.

Regarding `CCOC(=O)c1c(C)oc2c1c1c(c3ccccc32)OCN(C2CCS(=O)(=O)C2)C1` (centres unmarked) [A3.129], the IC50 under setting [1] was found to be 22.3 µM.

With `O=C(N/N=C/c1ccco1)c1ccc(=O)[nH]n1` [A3.130], the IC50 under setting [1] stood at 22.4 µM.

For the compound `O=C(N/N=C/c1ccco1)c1cccc(NC(=O)c2cccc(Br)c2)c1` [A3.131], the IC50 under setting [1] was determined as 22.4 µM.

As for `CC(C)CC(NC(=O)C(CCC(N)=O)NC(=O)CNC(=O)C(NC(=O)OCC1c2ccccc2-c2ccccc21)C(C)C)C(=O)O` (centres unmarked) [A3.132] (Fmoc-VGQL-OH; configuration not given here), the IC50 under setting [1] is 22.5 µM.

For the compound `Cn1nc(-c2cccs2)nc2c(=O)n(C)c(=O)nc1-2` [A3.133], under setting [1], the IC50 amounted to 25 µM.

`COc1ccc(C(=O)N/N=C/c2ccco2)cc1` [A3.134]: under setting [1], the IC50 is 22.6 µM.

As for `CCN(CC)c1ccc(/C=N/NC(=O)CNC(=O)/C=C/c2ccco2)cc1` [A3.135], the IC50 under setting [1] was 22.8 µM.

`Cc1ccc(/C=N/NC(=O)c2ccc(NC(=O)c3ccccc3C)cc2)o1` [A3.136]: the IC50 under setting [1] worked out at 22.8 µM.

With `CN(C)CCCN1CCN(c2nc(N(C)CC(=O)O)c3ncn(Cc4ccc(C(F)(F)F)cc4)c3n2)CC1` [A3.137], under setting [1], the IC50 is 23 µM.

In the case of `CC1=NNC(=O)C1CCC(=O)N/N=C\C=C\c1ccco1` (centres unmarked) [A3.138], under setting [1], the IC50 turned out to be 23 µM.

As for `CCOC(=O)C1=C2SCC(=O)N2C(N)=C(C#N)C1` [A3.139], under setting [1], the IC50 is 23.1 µM.

Take `Cc1cc(C)cc(OCC(=O)N/N=C/c2ccco2)c1` [A3.140]: the IC50 under setting [1] came out at 23.4 µM.

As to `COc1ccc(CCCC(=O)N/N=C/c2ccco2)cc1` [A3.141], under setting [1], the IC50 turned out to be 23.4 µM.

On to `Cc1ccc(/C=N/NC(=O)c2ccc(O)cc2)o1` [A3.142], for which, under setting [1], the IC50 turned out to be 23.4 µM.

As to `O=C(N/N=C/c1cc(Br)c(O)c(Br)c1O)/C(=C\c1ccc2c(c1)OCO2)NC(=O)c1ccccc1` [A3.143], under setting [1], the IC50 amounted to 23.6 µM.

`O=C(O)c1ccc2c(c1)C(=O)/C(=C\c1ccco1)C2=O` [A3.144]: the IC50 under setting [1] came to 23.7 µM.

As for `O=C1C(Cc2ccc(O)cc2)NC(=S)N1Cc1ccccc1` (centres unmarked) [A3.145], the IC50 (Table 3, starred values = ID50, read-out: ID50 APN (values marked with *)) was 23.7 µM.

Take `CCCOC(=O)c1cc(-c2ccc(/C=C3\C(=O)N(CCCO)C(=O)C(C#N)=C3C)o2)ccc1Cl` [A3.146]: under setting [1], the IC50 was found to be 23.8 µM.

As to `O=C1/C(=C/C=C/c2ccco2)CCC/C1=C\C=C\c1ccco1` [A3.147], under setting [1], the IC50 worked out at 24.4 µM.

As for `O=C(N/N=C\c1ccco1)c1ccc(Br)cc1` [A3.148], under setting [1], the IC50 worked out at 24.5 µM.

Regarding `Cc1ccc(/C=C/C(=O)Nc2ccc(S(=O)(=O)N3CCCC3)cc2)o1` [A3.149], under setting [1], the IC50 turned out to be 24.8 µM.

Turning to `Cc1ccc(C)n1-c1cccc(C(=O)N/N=C/c2cc(Br)c(O)c(Br)c2)c1` [A3.150], under setting [1], the IC50 turned out to be 24.9 µM.

Regarding `O=C1C(Cc2ccccc2)NC(=S)N1c1ccccc1` (centres unmarked) [A3.151], the IC50 under setting [1] was 26.1 µM.

For `COc1cc(/C=N/NC(=O)/C(=C/c2cccs2)NC(=O)c2ccccc2)cc([N+](=O)[O-])c1O` [A3.152], under setting [1], the IC50 was determined as 25.1 µM.

As to `CCc1ccc(OCC(=O)N/N=C\c2ccco2)c([N+](=O)[O-])c1` [A3.153], the IC50 under setting [1] came out at 25.1 µM.

Take `O=C(N/C(=C\c1ccco1)C(=O)N1CCOCC1)c1ccccc1Cl` [A3.154]: the IC50 under setting [1] turned out to be 25.5 µM.

For `CCOc1ccc(Br)cc1C(=O)N/N=C/c1ccco1` [A3.155], under setting [1], the IC50 was found to be 25.8 µM.

Consider `O=C(N/N=C/c1ccco1)c1cccc(NC(=O)c2ccc(F)cc2)c1` [A3.156], for which, under setting [1], the IC50 is 25.9 µM.

With `Cn1c(=O)[nH]c2nnc(-c3cccs3)nc2c1=O` [A3.157], under setting [1], the IC50 stood at 26.1 µM.

On to `O=C(CCCOc1ccc(Cl)cc1Cl)N/N=C/c1ccco1` [A3.158], for which, under setting [1], the IC50 was found to be 26.3 µM.

For `Cc1ccc(/C=N/NC2=NC(=O)CS2)o1` [A3.159], under setting [1], the IC50 was 22.6 µM.

With `Cc1ccc(/C=N/NC(=O)c2cc(O)cc(O)c2)o1` [A3.160], the IC50 under setting [1] came out at 26.4 µM.

For the compound `O=C1CNC(c2cccc([N+](=O)[O-])c2)N1O` (centres unmarked) [A3.161], the IC50 under setting [1] stood at 26.4 µM.

Take `COc1ccc(C2(CNC(=O)/C=C/c3ccco3)CCCC2)cc1OC` [A3.162]: the IC50 under setting [1] was 26.6 µM.

On to `Cc1ccc(/C=N/NC(=O)c2nnn(-c3nonc3N)c2CN2CCOCC2)o1` [A3.163], for which the IC50 under setting [1] came out at 26.7 µM.

Regarding `CCCCCC(=O)N/N=C/c1ccco1` [A3.164], the IC50 under setting [1] was determined as 26.7 µM.

On to `CCCOc1ccc(/C=C(\NC(=O)c2ccccc2)C(=O)N/N=C/c2ccco2)cc1` [A3.165], for which the IC50 under setting [1] was 27.3 µM.

For `O=C(/C=C/c1ccco1)c1ccccc1` [A3.166], the IC50 under setting [1] came out at 27.3 µM.

Regarding `Cc1nn(-c2ccccc2)c(C)c1-c1cc(C(=O)N/N=C/c2ccco2)[nH]n1` [A3.167], the IC50 under setting [1] turned out to be 27.4 µM.

For `CC(/C=N/NC(=O)c1ccco1)=C\c1ccco1` [A3.168], the IC50 under setting [1] was determined as 27.5 µM.

On to `CC1SC(N/N=C/c2ccco2)=NC1=O` (centres unmarked) [A3.169], for which the IC50 under setting [1] is 27.7 µM.

For `Cc1ccc(Cn2c(SCCC(=O)O)nc3c2c(=O)n(C)c(=O)n3C)cc1` [A3.170], the IC50 under setting [1] amounted to 28 µM.

With `O=C(Cc1cccs1)N/N=C/C=C\c1ccco1` [A3.171], under setting [1], the IC50 turned out to be 28 µM.

`COC(=O)c1ccccc1-c1ccc(/C=C2\C(=O)N(C)C(=O)C(C#N)=C2C)o1` [A3.172]: the IC50 under setting [1] is 28.1 µM.

Consider `CC(/C=C/c1ccco1)=N\NC(=O)CNc1ccc2ccccc2c1` [A3.173], for which the IC50 under setting [1] was found to be 28.5 µM.

Take `C/C(=N\N=C1\SC(CC(=O)O)C(=O)N1c1ccccc1)c1ccco1` (centres unmarked) [A3.174]: under setting [1], the IC50 is 28.6 µM.

Consider `CC1=C(C#N)C(=O)N(CC(C)O)C(=O)/C1=C/c1ccc(-c2cccc(Cl)c2C)o1` (centres unmarked) [A3.175], for which the IC50 under setting [1] was found to be 28.6 µM.

On to `C(=C\c1ccco1)/c1nc2ccccc2[nH]1` [A3.176], for which the IC50 under setting [1] came out at 28.7 µM.

With `COc1ccccc1-n1c(CCC(=O)O)ccc1-c1cccs1` [A3.177], the IC50 under setting [1] is 28.7 µM.

On to `Cc1ccc(C(=O)N/C(=C\c2ccco2)C(=O)N2CCOCC2)cc1C` [A3.178], for which, under setting [1], the IC50 turned out to be 28.8 µM.

On to `O=C(C1c2ccccc2Oc2ccccc21)n1cc(Cl)cn1` [A3.179], for which, under setting [1], the IC50 turned out to be 29.1 µM.

Regarding `C=CCN1C(=O)C(C#N)=C(C)/C(=C\c2ccc(-c3cc(C)c(C)cc3[N+](=O)[O-])o2)C1=O` [A3.180], the IC50 under setting [1] is 29.3 µM.

These data come from patent US20070037752A1, “Novel alanyl-amino peptidase inhibitors for functionally influencing different cells and treating immunological, inflammatory, neuronal, and other diseases” (priority 2003, published 2007).
